Read-outs that look alike come from different tables or passages of the source.
Legend:
[1] = Procedure: (§1) Therefore, experiments were performed to investigate biological stability and bioavailability of the compounds of formula I, and to compare these with N-acetyl-L-cysteine.
[2] = Plasma thiol concentrations after intraintestinal injection in anaesthetized rats
Procedure: as §1
The thiols were injected into the intestines of anaesthetized rats. At various times after the injections blood samples were withdrawn, and plasma thiols analyzed. […] The values given represent mean±SEM, unless otherwise stated.

[3] = Plasma concentrations and urinary excretion in healthy human volunteers after oral intake
Procedure: as §1
Plasma concentrations and urinary excretion in helthy human volunteers were measured after oral intake of N-acetyl-L-cysteine, and N-isobutyryl-L-cysteine, 1.23 mmole of each.

Row | SMILES | biological stability (in words) [1] | hydrolysis in homogenates [1] | concentration ([2]; rat, in vivo) [µM] | Cmax ([3]; human, in vivo, po, 1.23 mmol) [µM] | bioavailability / plasma levels after oral intake (in words) ([3]; oral intake) | plasma level after intraintestinal injection (in words) ([2]; rat, in vivo) | concentration ([2]; read-out: concentrations of the thiols in plasma, after injection into intestines of anaesthetized rats, only one experiment performed) [µM] | bioavailability / plasma levels after oral intake (in words) ([3]; human, in vivo, po)
1 | CC(C)(C)C(=O)N[C@@H](CS)C(=O)O [N-pivaloyl-L-cysteine] | much more biologically stable | not hydrolyzed to any measureable extent | 11.8 |  |  |  |  | 
2 | CC(=O)N[C@@H](CS)C(=O)O [N-acetyl-L-cysteine, reference compound] | biologically unstable |  |  | < 1 | poor bioavailability | barely detectable in plasma | 0.7 | 
3 | CC(C)C(=O)N[C@@H](CS)C(=O)O [N-isobutyryl-L-cysteine] | much more biologically stable |  | 13 ± 2.9 |  |  | reached considerable concentrations |  | reached high concentrations in plasma
